Test results taken from patent US10258602B2 (Ocera Therapeutics, Inc., priority 2007, dated 2019).

Tests used:
[1] = target: human growth hormone secretagogue receptor (hGHS-R1a) (Homo sapiens, UniProt Q92847); test: Competitive radioligand binding assay (ghrelin receptor), standard method A; settings: binding activity at the human ghrelin receptor, standard method A
Excerpt: A competitive binding assay at the human growth hormone secretagogue receptor (hGHS-R1a) can be carried out analogously to assays described in the literature. (Bednarek, M. A.; et al. J. Med. Chem. 2000, 43, 4370-4376; Palucki, B. L.; et al. Bioorg. Med. Chem. Lett. […], 11, 1955-1957.) See also U.S. patent application Ser. Nos. 11/149,512 and 11/149,731. Binding activity at the gherlin receptor for representative compounds of the present invention is shown in the Examples below.

[2] = Pharmacokinetic analysis (oral bioavailability, elimination half-life) in the rat; type: in vivo; settings: oral administration, 8 mg/kg dose, HPLC-MS
Excerpt: D. Pharmacokinetic Analysis of Representative Compounds of the Invention
The pharmacokinetic behavior of compound of the invention can be ascertained by methods well known to those skilled in the art. (Wilkinson, G. R. “Pharmacokinetics: The Dynamics of Drug Absorption, Distribution, and Elimination” in Goodman & Gilman's The Pharmacological Basis of Therapeutics, Tenth Edition, Hardman, J. G.; Limbird, L. E., Eds., McGraw Hill, Columbus, Ohio, 2001, Chapter 1.) The following method was used to investigate the pharmacokinetic parameters (elimination half-life, total plasma clearance, etc.) for intravenous, subcutaneous and oral administration of compounds of the present invention. See also U.S. patent application Ser. No. 11/149,512 and Ser. No. 11/149,731 and Intl. Pat. Appl. No. PCT/US2007/017905.
The table below presents oral bioavailability and elimination half-life data in the rat for representative compounds of the present invention. The parameters were determined by HPLC-MS after oral administration of an 8 mg/kg dose of the compound, except for compound 822 where a 2 mg/kg dose was used.

fasted rats = test: Gastric emptying in fasted rat model, standard method E; type: in vivo; settings: average where repeated
Protocol: E. Gastric Emptying in Fasted Rat Model
To examine the effects of compounds of the invention in a model for gastroparesis, compounds were evaluated for possible effects on gastric emptying in fasted rats. This model is used to determine the potential of compounds of the invention to promote motility in fasted rats.
• 1. Overnight-fasted rats (male, Wistar, 200 g, n=5/group) were given a meal (2 mL) of methylcellulose (2%) by intragastric gavage. The meal was labeled with phenol red (0.05%). • 2. Test articles (dosed at various concentrations, typically 1, 3, 10, 30 mg/kg), vehicle and positive control (metoclopramide, a 5-HT ligand and prokinetic agent currently prescribed for the treatment of GI disorders, including gastroparesis) were administered by oral gavage immediately after the meal (time=0). • 3. […] Total phenol red remaining in the stomach was quantified by a colorimetric method at 560 nm. • 5. A 30% or more increase in gastric emptying (as compared to the vehicle control) was considered significant. • 6. One-way ANOVA, Dunnet's post-hoc statistical test was applied Results
The effects of representative compounds of the invention in the rat gastric emptying model described in standard method E are provided in the following table. In cases where an experiment was conducted multiple times, the average of the individual results is presented.

human plasma = test: Plasma protein binding, human plasma (equilibrium dialysis); type: in vitro ADME; settings: test concentration 3 μg/mL
Excerpt: J. Plasma Protein Binding
The pharmacokinetic and pharmacodynamic properties of drugs are largely a function of the reversible binding of drugs to plasma or serum proteins such as albumin and α1-acid glycoprotein. In general, only unbound drug is available for diffusion or transport across cell membranes, and for interaction at the pharmacological target. On the other hand, drugs with low plasma protein binding generally have large volumes of distribution and rapid clearance since only unbound drug is available for glomerular filtration and, in some cases, hepatic clearance. Thus, the extent of plasma protein binding can influence efficacy, distribution and elimination. The ideal range for plasma protein binding is in the range of 87-98% for most drug products.
Protein binding studies were performed using human plasma. Briefly, 96-well microplates were used to incubate various concentrations of the test article for 60 min at 37° C. Bound and unbound fractions are separated by equilibrium dialysis, where the concentration remaining in the unbound fraction is quantified by LC-MS or LC-MS-MS analysis. […].
The table below presents protein binding data for representative compounds of the present invention in both human and rat plasma.

[3] = target: GHS-R1a receptor (human ghrelin receptor) (Homo sapiens, UniProt Q92847); test: Aequorin functional assay (ghrelin receptor), standard method B; type: cell-based; settings: functional activity at the human ghrelin receptor, standard method B (Aequorin)
Excerpt: B. Aequorin Functional Assay (Ghrelin Receptor)
See also U.S. patent application Ser. Nos. 11/149,512 and 11/149,731. (LePoul, E.; et al. J. Biomol. Screen. 2002, 7, 57-65; Bednarek, M. A.; et al. J. Med. Chem. 2000, 43, 4370-4376; Palucki, B. L.; et al. Bioorg. Med. Chem. Lett. 2001, 11, 1955-1957.) Functional activity at the gherlin receptor for representative compounds of the present invention is presented in the Examples.

human growth hormone secretagogue receptor (hGHS-R1a), sequence (Q92847 whole entry): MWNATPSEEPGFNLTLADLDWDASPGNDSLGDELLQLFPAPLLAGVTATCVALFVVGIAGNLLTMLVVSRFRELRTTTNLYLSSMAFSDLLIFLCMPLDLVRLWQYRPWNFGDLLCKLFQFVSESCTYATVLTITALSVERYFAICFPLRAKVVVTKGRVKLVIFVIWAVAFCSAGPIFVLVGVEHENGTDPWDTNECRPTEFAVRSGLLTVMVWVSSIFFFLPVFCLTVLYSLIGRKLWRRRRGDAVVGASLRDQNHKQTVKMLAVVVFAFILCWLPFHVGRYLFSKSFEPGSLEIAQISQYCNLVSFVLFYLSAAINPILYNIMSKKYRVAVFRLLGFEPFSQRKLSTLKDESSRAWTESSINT
GHS-R1a receptor (human ghrelin receptor), sequence (Q92847 whole entry): as above

Row | SMILES | Ki [1] [nM] | Elimination Half-life (t1/2, rat, min) [2] [min] | Oral Bioavailability (rat, % F) [2] [% F] | further results
1 | CC1CNC(C2CCCCC2)C(=O)N(C)C(C)C(=O)NC(Cc2ccc(O)cc2)C(=O)NCCCC2CCCCC2O1 (mixture of isomers) [Compound 829] | ≤ 1 | 45 | 8 | Percent Increase in Gastric Emptying After Oral Administration (fasted rats; dose 3 mg/kg): 28%; Human Plasma Protein Binding (%) (human plasma): 91.6%
2 | CC1CNC(C2CC2)C(=O)N(C)C(C)C(=O)NC(CC2CCCCC2)C(=O)NCCCC2CCCCC2O1 (mixture of isomers) [Compound 831] | ≤ 1 | 120 | 15 | Percent Increase in Gastric Emptying After Oral Administration (fasted rats; dose 3 mg/kg): 32%
3 | CC(C)C[C@H]1NC(=O)[C@@H](C)N(C)C(=O)[C@H](C2CC2)NCCOc2c(F)cccc2CCCNC1=O [Compound 813] | ≤ 10 | 31 | 4 | Percent Increase in Gastric Emptying After Oral Administration (fasted rats; dose 3 mg/kg): 11%
4 | C[C@@H]1C(=O)N[C@H](Cc2ccc(O)cc2)C(=O)NCCCc2ccc(F)c(F)c2OCCN[C@@H](C2CC2)C(=O)N1C [Compound 818] | ≤ 10 |  |  | Percent Increase in Gastric Emptying After Oral Administration (fasted rats; dose 3 mg/kg): 11%
5 | C[C@@H]1CN[C@@H](C2CC2)C(=O)N(C)[C@H](C)C(=O)N[C@H](Cc2ccc(F)cc2)C(=O)NCCCc2ccc(F)cc2O1 [Compound 854] | ≤ 100 | 223 | 22 | 
6 | C[C@@H]1CN[C@@H](C2CC2)C(=O)N(C)[C@H](C)C(=O)N[C@H](Cc2ccc(Cl)cc2)C(=O)NCCCc2ccccc2O1 [Compound 862] | ≤ 10 | 77 | 22 | 
7 | C[C@@H]1CN[C@@H](C2CC2)C(=O)N(C)[C@H](C)C(=O)N[C@H](Cc2ccc(F)cc2)C(=O)NCCCc2cccc(F)c2O1 [Compound 935] | ≤ 100 | 42 | 11 | 
8 | C[C@@H]1CN[C@@H](C2CC2)C(=O)N(C)[C@H](C)C(=O)N[C@H](Cc2cccnc2)C(=O)NCCCc2ccccc2O1 [Compound 975] | ≤ 100 |  |  | EC50 [3]: > 400 nM
9 | CC[C@H](C)[C@@H]1NC[C@@H](C)Oc2ccccc2CCCNC(=O)[C@@H](Cc2cccnc2)NC(=O)[C@@H](C)N(C)C1=O [Compound 976] | ≤ 100 |  |  | EC50 [3]: ≤ 400 nM
10 | CC(C)C[C@H]1NC(=O)[C@@H](C)N(C)C(=O)[C@H](C2CC2)NC[C@@H](C)Oc2c(F)cccc2CCCNC1=O [Compound 979] | ≤ 100 | 34 | 11 | 
11 | C[C@@H]1CN[C@@H](C2CCCCC2)C(=O)N(C)[C@H](C)C(=O)N[C@H](Cc2ccc(F)cc2)C(=O)NCCCc2ccccc2O1 [Compound 982] | ≤ 1 |  |  | EC50 [3]: ≤ 50 nM
12 | C[C@@H]1CN[C@@H](C2CC2)C(=O)N(C)[C@H](C)C(=O)N[C@H](Cc2ccc(O)cc2)C(=O)NCCCc2ccccc2O1 [Compound 989] | ≤ 100 | 138 | 7 | 
13 | CC(C)C[C@H]1NC(=O)[C@@H](C)N(C)C(=O)[C@H](C2CC2)NC[C@@H](C)Oc2cccnc2CCCNC1=O [Compound 999] |  | 122 | 9 | 
14 | C[C@@H]1C(=O)N[C@H](Cc2ccc(F)cc2)C(=O)NCCCc2cccc3c2O[C@H](CC3)CN[C@@H](C2CC2)C(=O)N1C [Compound 1009] | ≤ 1 |  |  | EC50 [3]: ≤ 50 nM
15 | C[C@@H]1CN[C@@H](C2CC2)C(=O)N(C)[C@H](C)C(=O)N[C@H](Cc2ccc(F)cc2)C(=O)N[C@@H](C)CCc2ccccc2O1 [Compound 1011] | ≤ 10 | 268 | 22 | 
16 | C[C@@H]1CN[C@@H](C2CC2)C(=O)N(C)[C@H](C)C(=O)N[C@H](Cc2ccc(F)cc2)C(=O)NCCCc2ncccc2O1 [Compound 1027] | ≤ 100 | 46 | 6 | 
17 | C[C@@H]1CN[C@@H](C2CC2)C(=O)N(C)[C@H](C)C(=O)N[C@H](Cc2ccc(O)cc2)C(=O)N(C)CCCc2ccccc2O1 [Compound 1069] | ≤ 100 | 128 | 32 | 

Row | SMILES | Ki [1] [nM] | Elimination Half-life (t1/2, rat, min) [2] [min] | Oral Bioavailability (rat, % F) [2] [% F] | further results
18 | CC(C)C[C@H]1NC(=O)[C@@H](C)N(C)C(=O)[C@H](C2CC2)NC[C@@H](C)Oc2cccnc2CC[C@H](C)NC1=O [Compound 1088] | ≤ 500 |  |  | 
19 | COC(=O)C[C@H]1NC(=O)[C@@H](C)N(C)C(=O)[C@H](C2CC2)NC[C@@H](C)Oc2ccccc2CCCNC1=O [Compound 1090] | ≤ 500 |  |  | 
20 | CC(C)C[C@H]1NC(=O)[C@@H](C)N(C)C(=O)[C@H](C2CCCCC2)NC[C@@H](C)Oc2ccccc2CCCNC1=O [Compound 1099] | ≤ 1 |  |  | 
21 | C[C@@H]1C(=O)N[C@H](Cc2ccc(F)cc2)C(=O)NCCCc2ccc(F)c(F)c2OCCN[C@@H](C2CC2)C(=O)N1C [Compound 1100] | ≤ 10 |  |  | 
22 | C[C@@H]1CN[C@@H](C2CC2)C(=O)N(C)[C@H](C)C(=O)N[C@H](c2ccc(O)cc2)C(=O)NCCCc2ccccc2O1 [Compound 1103] | > 500 |  |  | 
23 | C[C@@H]1CN[C@@H](C2CC2)C(=O)N(C)[C@H](C)C(=O)N[C@H](Cc2ccc(O)c(F)c2)C(=O)NCCCc2ccccc2O1 [Compound 1104] | ≤ 100 |  |  | 
24 | C[C@@H]1C(=O)N[C@H](Cc2ccc(O)cc2)C(=O)NCCCc2cccc3c2O[C@H](CC3)CN[C@@H](C2CCCCC2)C(=O)N1C [Compound 1105] | ≤ 1 |  |  | 
25 | CC(C)CC1NC(=O)C(C)N(C)C(=O)C(C2CC2)NCCOC2CCCCC2CCCNC1=O (centres unmarked) [Compound 1106] | ≤ 100 |  |  | 
26 | CC(C)CC1NC(=O)C(C)N(C)C(=O)C(C2CC2)NCC(C)OC2CCCCC2CCC(C)NC1=O (centres unmarked) [Compound 1107] | ≤ 100 |  |  | 
27 | CC1CNC(C2CCCCC2)C(=O)N(C)C(C)C(=O)NC(Cc2ccc(O)cc2)C(=O)NCCCc2ccccc2O1 (centres unmarked) [Compound 1108] | ≤ 1 |  |  | 
28 | CC1C(=O)NC(Cc2ccc(F)cc2)C(=O)NCCCc2c(F)cccc2OCCNC(C2CC2)C(=O)N1C (centres unmarked) [Compound 1109] | ≤ 10 |  |  | 
29 | CC1C(=O)NC(Cc2ccc(O)cc2)C(=O)NCCCc2c(F)cccc2OCCNC(C2CC2)C(=O)N1C (centres unmarked) [Compound 1110] | ≤ 100 |  |  | 
30 | CC(C)CC1NC(=O)C(C)N(C)C(=O)C(C2CC2)NCCOc2cccc(F)c2CCCNC1=O (centres unmarked) [Compound 1111] | ≤ 100 |  |  | 
31 | CC(C)CC1NC(=O)C(C)N(C)C(=O)C(C2CCCCC2)NCCOc2cc(F)ccc2CCCNC1=O (centres unmarked) [Compound 1112] | ≤ 1 |  |  | 
32 | CC1C(=O)NC(Cc2ccc(O)cc2)C(=O)NCCCc2ccc(F)cc2OCCNC(C2CCCCC2)C(=O)N1C (centres unmarked) [Compound 1113] | ≤ 1 |  |  | 
33 | CCN(CC)CCNC(=O)c1cc(Cl)c(N)cc1OC [metoclopramide] |  |  |  | Percent Increase in Gastric Emptying After Oral Administration (fasted rats; dose 30 mg/kg): 35%
